Measured values: the NIST ThermoML archive (doi:10.1016/j.jct.2015.08.014)
Numbers after ± are expanded uncertainties.

Assay: xn = mol fraction of the nth substance listed
Details: 273.15 K, 100 kPa, Liquid, Alternating current cell with electrodes

Measured: electrical conductivity

CCCC[N+]1(C)CCCC1.N#CN=C=[N-] [1-butyl-1-methylpyrrolidinium dicyanamide] + O=C1CCCO1
1.43 ± 0.017 S/m: Frequency=0.005454 MHz, x1 = 0.0987 | Frequency=0.006 MHz, x1 = 0.0987 | Frequency=0.00652174 MHz, x1 = 0.0987 | Frequency=0.00694444 MHz, x1 = 0.0987 | Frequency=0.0075 MHz, x1 = 0.0987 | Frequency=0.008 MHz, x1 = 0.0987 | Frequency=0.00857143 MHz, x1 = 0.0987 | Frequency=0.00892857 MHz, x1 = 0.0987
1.634 ± 0.016 S/m: Frequency=0.005454 MHz, x1 = 0.1859 | Frequency=0.006 MHz, x1 = 0.1859 | Frequency=0.00652174 MHz, x1 = 0.1859 | Frequency=0.00694444 MHz, x1 = 0.1859 | Frequency=0.0075 MHz, x1 = 0.1859
0.742 ± 0.008 S/m: Frequency=0.00446429 MHz, x1 = 0.6954 | Frequency=0.005 MHz, x1 = 0.6954 | Frequency=0.005454 MHz, x1 = 0.6954 | Frequency=0.006 MHz, x1 = 0.6954 | Frequency=0.00652174 MHz, x1 = 0.6954 | Frequency=0.00694444 MHz, x1 = 0.6954 | Frequency=0.0075 MHz, x1 = 0.6954 | Frequency=0.008 MHz, x1 = 0.6954 | Frequency=0.00857143 MHz, x1 = 0.6954 | Frequency=0.00892857 MHz, x1 = 0.6954
1.517 ± 0.015 S/m: Frequency=0.005 MHz, x1 = 0.2493 | Frequency=0.005454 MHz, x1 = 0.2493 | Frequency=0.006 MHz, x1 = 0.2493 | Frequency=0.00652174 MHz, x1 = 0.2493 | Frequency=0.00694444 MHz, x1 = 0.2493 | Frequency=0.0075 MHz, x1 = 0.2493 | Frequency=0.008 MHz, x1 = 0.2493 | Frequency=0.00857143 MHz, x1 = 0.2493 | Frequency=0.00892857 MHz, x1 = 0.2493
1.25 ± 0.013 S/m: Frequency=0.00446429 MHz, x1 = 0.3845 | Frequency=0.005 MHz, x1 = 0.3845 | Frequency=0.005454 MHz, x1 = 0.3845 | Frequency=0.006 MHz, x1 = 0.3845 | Frequency=0.00652174 MHz, x1 = 0.3845 | Frequency=0.00694444 MHz, x1 = 0.3845 | Frequency=0.0075 MHz, x1 = 0.3845 | Frequency=0.008 MHz, x1 = 0.3845 | Frequency=0.00857143 MHz, x1 = 0.3845 | Frequency=0.00892857 MHz, x1 = 0.3845
0.978 ± 0.016 S/m: Frequency=0.00652174 MHz, x1 = 0.0463 | Frequency=0.00694444 MHz, x1 = 0.0463 | Frequency=0.0075 MHz, x1 = 0.0463 | Frequency=0.008 MHz, x1 = 0.0463 | Frequency=0.00857143 MHz, x1 = 0.0463 | Frequency=0.00892857 MHz, x1 = 0.0463
1.42 ± 0.017 S/m: Frequency=0.00446429 MHz, x1 = 0.0987 | Frequency=0.005 MHz, x1 = 0.0987
1.56 ± 0.016 S/m: Frequency=0.00446429 MHz, x1 = 0.1449 | Frequency=0.005 MHz, x1 = 0.1449 | Frequency=0.005454 MHz, x1 = 0.1449 | Frequency=0.006 MHz, x1 = 0.1449 | Frequency=0.00652174 MHz, x1 = 0.1449 | Frequency=0.00694444 MHz, x1 = 0.1449 | Frequency=0.0075 MHz, x1 = 0.1449 | Frequency=0.008 MHz, x1 = 0.1449
1.633 ± 0.016 S/m: Frequency=0.00446429 MHz, x1 = 0.1859 | Frequency=0.005 MHz, x1 = 0.1859
1.57 ± 0.016 S/m: Frequency=0.00857143 MHz, x1 = 0.1449 | Frequency=0.00892857 MHz, x1 = 0.1449
0.977 ± 0.016 S/m: Frequency=0.005 MHz, x1 = 0.0463 | Frequency=0.005454 MHz, x1 = 0.0463 | Frequency=0.006 MHz, x1 = 0.0463
0.523 ± 0.005 S/m: Frequency=0.00446429 MHz, x1 = 1 | Frequency=0.005 MHz, x1 = 1 | Frequency=0.005454 MHz, x1 = 1 | Frequency=0.006 MHz, x1 = 1 | Frequency=0.00652174 MHz, x1 = 1 | Frequency=0.00694444 MHz, x1 = 1 | Frequency=0.0075 MHz, x1 = 1 | Frequency=0.008 MHz, x1 = 1 | Frequency=0.00857143 MHz, x1 = 1
0.563 ± 0.006 S/m: Frequency=0.00652174 MHz, x1 = 0.9013 | Frequency=0.00694444 MHz, x1 = 0.9013 | Frequency=0.0075 MHz, x1 = 0.9013 | Frequency=0.008 MHz, x1 = 0.9013 | Frequency=0.00857143 MHz, x1 = 0.9013
1.635 ± 0.016 S/m: Frequency=0.008 MHz, x1 = 0.1859 | Frequency=0.00857143 MHz, x1 = 0.1859 | Frequency=0.00892857 MHz, x1 = 0.1859
0.562 ± 0.006 S/m: Frequency=0.00446429 MHz, x1 = 0.9013 | Frequency=0.005 MHz, x1 = 0.9013 | Frequency=0.005454 MHz, x1 = 0.9013 | Frequency=0.006 MHz, x1 = 0.9013
1.42 ± 0.015 S/m: Frequency=0.00446429 MHz, x1 = 0.3029 | Frequency=0.005 MHz, x1 = 0.3029 | Frequency=0.005454 MHz, x1 = 0.3029 | Frequency=0.006 MHz, x1 = 0.3029 | Frequency=0.00652174 MHz, x1 = 0.3029 | Frequency=0.00694444 MHz, x1 = 0.3029 | Frequency=0.0075 MHz, x1 = 0.3029 | Frequency=0.008 MHz, x1 = 0.3029 | Frequency=0.00857143 MHz, x1 = 0.3029 | Frequency=0.00892857 MHz, x1 = 0.3029
1.516 ± 0.015 S/m: Frequency=0.00446429 MHz, x1 = 0.2493
1.03 ± 0.011 S/m: Frequency=0.00446429 MHz, x1 = 0.4985 | Frequency=0.005 MHz, x1 = 0.4985 | Frequency=0.005454 MHz, x1 = 0.4985 | Frequency=0.006 MHz, x1 = 0.4985 | Frequency=0.00652174 MHz, x1 = 0.4985 | Frequency=0.00694444 MHz, x1 = 0.4985 | Frequency=0.0075 MHz, x1 = 0.4985 | Frequency=0.008 MHz, x1 = 0.4985 | Frequency=0.00857143 MHz, x1 = 0.4985 | Frequency=0.00892857 MHz, x1 = 0.4985
